In ChEMBL document CHEMBL1139094, “The synthesis and structure-activity relationship studies of selective acetyl-CoA carboxylase inhibitors containing 4-(thiazol-5-yl)but-3-yn-2-amino motif: polar region modifications” (Bioorg Med Chem Lett, 2007):

How the values were obtained:
Homo sapiens = species on record: Homo sapiens; assay: Selectivity for human ACC2 over ACC1
Acetyl-CoA carboxylase 2 = Acetyl-CoA carboxylase 2 (Homo sapiens, UniProt O00763); assay: Inhibition of ACC2
Acetyl-CoA carboxylase 1 = Acetyl-CoA carboxylase 1 (Homo sapiens, UniProt Q13085); assay: Inhibition of ACC1

Acetyl-CoA carboxylase 2, sequence (O00763 whole entry): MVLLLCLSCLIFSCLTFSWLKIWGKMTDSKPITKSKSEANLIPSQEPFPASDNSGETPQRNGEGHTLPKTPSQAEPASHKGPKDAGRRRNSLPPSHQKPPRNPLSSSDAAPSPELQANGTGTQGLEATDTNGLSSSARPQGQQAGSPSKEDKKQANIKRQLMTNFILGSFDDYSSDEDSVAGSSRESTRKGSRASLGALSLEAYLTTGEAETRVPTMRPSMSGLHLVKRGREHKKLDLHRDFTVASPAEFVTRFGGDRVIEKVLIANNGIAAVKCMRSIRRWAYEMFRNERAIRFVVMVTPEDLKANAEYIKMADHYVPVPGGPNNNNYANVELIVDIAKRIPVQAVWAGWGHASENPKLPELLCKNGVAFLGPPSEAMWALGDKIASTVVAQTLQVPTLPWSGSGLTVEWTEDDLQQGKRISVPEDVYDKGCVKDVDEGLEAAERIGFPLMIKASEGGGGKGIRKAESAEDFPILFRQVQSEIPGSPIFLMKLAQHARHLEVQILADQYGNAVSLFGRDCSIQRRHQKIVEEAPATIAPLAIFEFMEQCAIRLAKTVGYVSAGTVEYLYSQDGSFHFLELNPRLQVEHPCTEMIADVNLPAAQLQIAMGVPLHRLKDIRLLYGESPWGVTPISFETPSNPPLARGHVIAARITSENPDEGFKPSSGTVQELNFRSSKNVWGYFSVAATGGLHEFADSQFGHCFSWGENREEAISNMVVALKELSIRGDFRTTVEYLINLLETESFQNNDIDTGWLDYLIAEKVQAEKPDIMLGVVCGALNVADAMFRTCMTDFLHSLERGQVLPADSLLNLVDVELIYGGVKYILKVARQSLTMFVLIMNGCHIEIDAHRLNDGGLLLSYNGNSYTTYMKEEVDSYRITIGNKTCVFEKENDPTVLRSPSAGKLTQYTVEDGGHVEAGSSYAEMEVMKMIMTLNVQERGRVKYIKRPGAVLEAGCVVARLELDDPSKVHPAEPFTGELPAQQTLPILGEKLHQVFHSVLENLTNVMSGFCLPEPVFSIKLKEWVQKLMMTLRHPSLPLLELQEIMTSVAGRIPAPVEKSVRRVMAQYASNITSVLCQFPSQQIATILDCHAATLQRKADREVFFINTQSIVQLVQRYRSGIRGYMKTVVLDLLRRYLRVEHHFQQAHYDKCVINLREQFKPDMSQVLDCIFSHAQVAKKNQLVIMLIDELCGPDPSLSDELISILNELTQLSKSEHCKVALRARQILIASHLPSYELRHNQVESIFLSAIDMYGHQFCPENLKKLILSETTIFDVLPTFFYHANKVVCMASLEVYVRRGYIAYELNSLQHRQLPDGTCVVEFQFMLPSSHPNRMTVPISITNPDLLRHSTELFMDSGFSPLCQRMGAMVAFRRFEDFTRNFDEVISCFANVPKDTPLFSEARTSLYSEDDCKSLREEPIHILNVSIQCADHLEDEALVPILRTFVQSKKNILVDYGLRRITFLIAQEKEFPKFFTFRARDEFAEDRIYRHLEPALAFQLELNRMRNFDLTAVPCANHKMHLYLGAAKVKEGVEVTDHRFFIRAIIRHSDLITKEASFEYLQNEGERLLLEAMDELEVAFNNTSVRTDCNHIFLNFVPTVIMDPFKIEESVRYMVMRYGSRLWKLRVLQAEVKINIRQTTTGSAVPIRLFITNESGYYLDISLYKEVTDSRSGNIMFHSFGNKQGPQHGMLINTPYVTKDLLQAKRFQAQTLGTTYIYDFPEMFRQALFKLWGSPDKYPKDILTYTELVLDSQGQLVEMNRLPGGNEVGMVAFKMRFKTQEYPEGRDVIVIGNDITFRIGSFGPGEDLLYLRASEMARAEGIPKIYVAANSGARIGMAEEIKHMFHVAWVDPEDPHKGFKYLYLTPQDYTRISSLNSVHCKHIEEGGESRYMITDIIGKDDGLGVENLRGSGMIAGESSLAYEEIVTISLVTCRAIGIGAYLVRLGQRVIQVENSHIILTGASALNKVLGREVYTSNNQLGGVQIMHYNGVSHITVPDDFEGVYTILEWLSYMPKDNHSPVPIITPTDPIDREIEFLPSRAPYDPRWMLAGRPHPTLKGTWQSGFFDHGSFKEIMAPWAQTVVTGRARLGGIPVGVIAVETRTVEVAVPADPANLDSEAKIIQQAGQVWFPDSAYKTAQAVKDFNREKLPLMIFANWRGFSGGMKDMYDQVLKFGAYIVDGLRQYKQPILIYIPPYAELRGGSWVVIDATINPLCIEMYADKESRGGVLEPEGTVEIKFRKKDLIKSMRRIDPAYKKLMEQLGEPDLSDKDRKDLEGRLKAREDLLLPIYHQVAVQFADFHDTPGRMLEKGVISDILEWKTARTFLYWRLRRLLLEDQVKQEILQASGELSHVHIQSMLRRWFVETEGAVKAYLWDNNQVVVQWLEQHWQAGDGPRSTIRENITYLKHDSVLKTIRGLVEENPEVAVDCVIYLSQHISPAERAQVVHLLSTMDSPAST

| SMILES | Ratio IC50 (Homo sapiens) | IC50 (Acetyl-CoA carboxylase 2) [nM] | IC50 (Acetyl-CoA carboxylase 1) [nM] |
| --- | --- | --- | --- |
| CC(C#Cc1cnc(Oc2ccc(Oc3ccccc3)cc2)s1)N(O)C(N)=O (stereo not drawn) | > 1000 | 75 | – |
| CC(C#Cc1cnc(Oc2ccc(OC(C)C)cc2)s1)NC(=O)C1CCOC1 (stereo not drawn) | – | 220 | > 30000 |
| CC(=O)NC(C#Cc1cnc(Oc2ccc(OC(C)C)cc2)s1)CO (stereo not drawn) | – | 910 | > 30000 |
| CC(C#Cc1cnc(Oc2ccc(Oc3ccccc3)cc2)s1)Nc1ncc[nH]1 (stereo not drawn) | – | 3980 | > 30000 |
| CC(C#Cc1cnc(Oc2ccc(OC(C)C)cc2)s1)NC(=O)NO (stereo not drawn) | – | 330 | > 30000 |
| CC(C#Cc1cnc(Oc2ccc(OC(C)C)cc2)s1)NC(N)=O (stereo not drawn) | – | 37 | > 30000 |
| CC(C#Cc1cnc(Oc2ccc(OC(C)C)cc2)s1)NC(=O)N(C)C (stereo not drawn) | – | 71 | > 30000 |
| CC(C#Cc1cnc(Oc2ccc(OC(C)C)cc2)s1)NC(=O)[C@@H]1CCCN1 (stereo partly drawn) | – | > 30000 | > 30000 |
| Cc1cc(NC(C)C#Cc2cnc(Oc3ccc(Oc4ccccc4)cc3)s2)on1 (stereo not drawn) | – | 57 | > 30000 |
| CC(C#Cc1cnc(Oc2ccc(OC(C)C)cc2)s1)NC(=O)C(=O)O (stereo not drawn) | – | > 30000 | > 30000 |
| CC(=O)NCC#Cc1cnc(Oc2ccc(OC(C)C)cc2)s1 | – | 1860 | – |
| CCC(C#Cc1cnc(Oc2ccc(OC(C)C)cc2)s1)NC(C)=O (stereo not drawn) | – | 530 | > 30000 |
| COC(=O)C(=O)NC(C)C#Cc1cnc(Oc2ccc(OC(C)C)cc2)s1 (stereo not drawn) | – | 850 | > 30000 |
| CC(=O)NC(C#Cc1cnc(Oc2ccc(OC(C)C)cc2)s1)C1CC1 (stereo not drawn) | – | 880 | – |
| CC(=O)NC(C#Cc1cnc(Oc2ccc(OC(C)C)cc2)s1)c1ccccc1 (stereo not drawn) | – | > 30000 | > 30000 |
| Cc1cc(NC(C)C#Cc2cnc(Oc3ccc(Oc4ccccc4)cc3)s2)no1 (stereo not drawn) | – | 83 | > 30000 |
| CNC(=O)NC(C)C#Cc1cnc(Oc2ccc(OC(C)C)cc2)s1 (stereo not drawn) | – | 32 | – |
| CC(C#Cc1cnc(Oc2ccc(OC(C)C)cc2)s1)NC(=O)NCC(N)=O (stereo not drawn) | – | 920 | > 30000 |
| CC(C#Cc1cnc(Oc2ccc(OC(C)C)cc2)s1)NC(=O)ON (stereo not drawn) | – | 680 | > 30000 |
| CC(C#Cc1cnc(Oc2ccc(Oc3ccccc3)cc2)s1)Nc1nccs1 (stereo not drawn) | – | 690 | 10700 |
| CC(C#Cc1cnc(Oc2ccc(OC(C)C)cc2)s1)NC(=O)N1CCOCC1 (stereo not drawn) | – | 670 | > 30000 |
| CC(C#Cc1cnc(Oc2ccc(OC(C)C)cc2)s1)NC(=O)C1CCCC1 (stereo not drawn) | – | 570 | > 30000 |
| Cc1noc(NC(C)C#Cc2cnc(Oc3ccc(Oc4ccccc4)cc3)s2)c1C (stereo not drawn) | – | 38 | > 30000 |
| CC(C#Cc1cnc(Oc2ccc(Oc3ccccc3)cc2)s1)Nc1ccon1 (stereo not drawn) | – | 42 | 5020 |
| CCn1ccc(NC(C)C#Cc2cnc(Oc3ccc(Oc4ccccc4)cc3)s2)n1 (stereo not drawn) | – | 440 | > 30000 |
| CC(C#Cc1cnc(Oc2ccc(Oc3ccccc3)cc2)s1)Nc1nc2ccccc2s1 (stereo not drawn) | – | > 30000 | > 30000 |
| CC(C)CONC(=O)NC(C)C#Cc1cnc(Oc2ccc(OC(C)C)cc2)s1 (stereo not drawn) | – | 20500 | > 30000 |
| CC(=O)NC(C)(C)C#Cc1cnc(Oc2ccc(OC(C)C)cc2)s1 | – | 500 | > 30000 |
